This note sets out measurements from ChEMBL document CHEMBL1144054, “Two new bromophenols from the red alga odonthalia corymbifera” (J Nat Prod, 1999).

A short description of the test: Inhibition of yeast alpha-glucosidase by colorimetric method. Details: species or system Saccharomyces cerevisiae.

The IC50 is the concentration needed to halve the response being measured. In turn, `OCc1cc(Br)c(O)c(Oc2c(CO)cc(Br)c(O)c2O)c1Br` yielded an IC50 of 25 µM. Take `OCc1cc(O)c(O)c(Br)c1Br` [LANOSOL]: the IC50 was 89 µM.

As for `Oc1cc(COCc2cc(O)c(O)c(Br)c2Br)c(Br)c(Br)c1O`, 0.098 µM corresponded to half-maximal inhibition (IC50).
